Assay [1] addresses PIM-3 kinase (Homo sapiens, UniProt Q86V86). The assay can be described thus: Measurement of PIM-3 kinase inhibitory activity (fluorescent substrate peptide, capillary electrophoresis). It is filed as biochemical. The following applies: 30 μM ATP, 2 hours at room temperature. Here is the method: 1.5 μM of fluorescent substrate peptide (FAM-AKRRRLSSLRA-COOH), 30 μM of ATP, and 0.0833 ng/μL of PIM-3 kinase were incubated with a compound for 2 hours at room temperature, and the Pim-3 kinase activity was measured. The reaction was quantified by separating the substrate and phosphorylation reaction product by capillary electrophoresis (using a Perkin-Elmer EZ reader II) based on the difference in their charges. The results are shown below in Tables 1 and 2.

The subject of assay [2] is PANC-1. As to the kind of experiment: Growth inhibitory activity on human pancreatic cancer cell lines (Example 2, WST-8). It is filed as cell-based. The conditions noted are these: cultured for 72 hours, 2000 cells/well. Here is the method:
(§1) Two thousand cells of human pancreatic cancer cells lines (L3.6pl, MiaPaca-2, PANC-1, PCI35, PCI66) were seeded in a medium volume of 100 μL in each well of a 96-well microtiter plate. The medium was removed after 18 hours, and 100 μL/well of medium containing the test compound was added. Culture was continued for 72 or 96 hours. The medium containing the test compound was removed, and 100 μL/well of medium containing 10% WST-8 (Dojindo Laboratories Cell Counting kit-8) was added. After culturing for one hour, the OD 450 nm absorbance was measured, and the cell growth inhibitory activity was calculated. Furthermore, RPMI-1640 medium (Sigma) was used as the medium with 10% fetal calf serum (Invitrogen), 50 U/mL penicillin G (Sigma), and 50 μg/mL streptomycin (Sigma) added. The cell lines were cultured at 37° C. in a carbon dioxide incubator with a carbon dioxide concentration of 5%.
(§2) Tables 3 and 4 show the results of compound evaluation when cultured for 96 hours.

Assay [3] concerns MiaPaca-2. Described as above. Type of assay: cell-based. The following applies: cultured for 72 hours, 2000 cells/well. On the procedure:
as §1, §2

In assay [4] the test system is L3.6pl. Described as above. It is filed as cell-based. The following applies: cultured for 72 hours, 2000 cells/well. Here is the method:
as §1, §2

In assay [5] the test system is PANC-1. As to the kind of experiment: Growth inhibitory activity on human pancreatic cancer cell lines (Example 4, WST-8). Type of assay: cell-based. The following applies: Example 4: 72 hours, 3000 cells/well. Here is the method:
(§3) Three thousand cells of human pancreatic cancer cell lines (L3.6pl, MiaPaca-2, PANC-1, PCI35, and PCI66) were seeded in a medium volume of 90 μL in each well of a 96-well microtiter plate. After 24 hours, 10 μL/well of medium containing the test compound was added. Culture was continued for 72 hours, and 10 μL/well of WST-8 (Dojindo Laboratories Cell Counting kit-8) was added. After culturing for 2 hours, the OD 450 nm absorbance was measured, and the cell growth inhibitory effect was calculated. The cell lines were cultured in a carbon dioxide incubator with a carbon dioxide concentration of 5%.

Assay [6] has as its system PCI35. The assay is described as above. Type of assay: cell-based. The following applies: Example 4: 72 hours, 3000 cells/well. On the procedure: as §3
In assay [7] the test system is MiaPaca-2. The description is as above. It is filed as cell-based. The conditions noted are these: MIA PaCa-2, Example 4: 72 hours, 3000 cells/well. Here is the method: as §3
The subject of assay [8] is PCI66. Described as above. Type of assay: cell-based. The conditions noted are these: Example 4: 72 hours, 3000 cells/well. On the procedure: as §3
For assay [9], the system named is L3.6pl. The assay is described as above. Type of assay: cell-based. The following applies: Example 4: 72 hours, 3000 cells/well. On the procedure:
as §3

Molecules are shown by their SMILES.

With `COc1ccc2c(c1CN1CCNCC1)O/C(=C\c1n[nH]c3nc(C)ccc13)C2=O` [Compound 7, (Z)-6-methoxy-2-[(6-methyl-1H-pyrazolo[3,4-b]pyridin-3-yl)methylene]-7-(piperazin-1-ylmethyl)benzofuran-3(2H)-one], in assay [1], the half-maximal inhibitory concentration (IC50) was 2.8 nM.
With `COc1ccc2c(c1CN1CCNC[C@H]1C)O/C(=C\c1n[nH]c3ncccc13)C2=O` [Compound 8, (R,Z)-2-[(1H-pyrazolo[3,4-b]pyridin-3-yl)methylene]-6-methoxy-7-[(2-methylpiperazin-1-yl)methyl]benzofuran-3(2H)-one], the concentration for half-maximal inhibition (IC50) is 38 nM in assay [1]; 12000 nM in assay [2] (Homo sapiens, PANC-1, 72 h); 3500 nM in assay [3] (Homo sapiens, MIA PaCa-2); 3500 nM in [4] (Homo sapiens, L3.6pl, 72 h).
`COc1ccc2c(c1CN1CCNC[C@@H]1C)O/C(=C\c1n[nH]c3ncccc13)C2=O` [Compound 9, (S,Z)-2-[(1H-pyrazolo[3,4-b]pyridin-3-yl)methylene]-6-methoxy-7-[(2-methylpiperazin-1-yl)methyl]benzofuran-3(2H)-one]: the IC50 in assay [1] was 8.4 nM; in assay [2] (Homo sapiens, PANC-1, 72 h), 12000 nM; in assay [3] (Homo sapiens, MIA PaCa-2), 3000 nM; in assay [4] (Homo sapiens, L3.6pl, 72 h), 4000 nM.
On the same counts, the results for `COc1ccc2c(c1CN1C[C@@H](C)N[C@@H](C)C1)O/C(=C\c1n[nH]c3ncccc13)C2=O` [Compound 10, (Z)-2-[(1H-pyrazolo[3,4-b]pyridin-3-yl)methylene]-7-[(cis-3,5-dimethylpiperazin-1-yl)methyl]-6-methoxybenzofuran-3(2H)-one] are 19 nM, 14000 nM, 3000 nM and 7500 nM.
On the same counts, the results for `COc1ccc2c(c1CN1CCN[C@@H](C)C1)O/C(=C\c1n[nH]c3ncccc13)C2=O` [Compound 11, (S,Z)-2-[(1H-pyrazolo[3,4-b]pyridin-3-yl)methylene]-6-methoxy-7-[(3-methylpiperazin-1-yl)methyl]benzofuran-3(2H)-one] are 1.4 nM, 8300 nM, 3400 nM and 3500 nM.
On the same counts, the results for `COc1ccc2c(c1CN1CCN[C@H](C)C1)O/C(=C\c1n[nH]c3ncccc13)C2=O` [Compound 12, (R,Z)-2-[(1H-pyrazolo[3,4-b]pyridin-3-yl)methylene]-6-methoxy-7-[(3-methylpiperazin-1-yl)methyl]benzofuran-3(2H)-one] are 7.9 nM, 8200 nM, 3200 nM and 3500 nM.
For `COc1ccc2c(c1CN1[C@H](C)CNC[C@@H]1C)O/C(=C\c1n[nH]c3ncccc13)C2=O` [Compound 13, (Z)-2-[(1H-pyrazolo[3,4-b]pyridin-3-yl)methylene]-7-[(cis-2,6-dimethylpiperazin-1-yl)methyl]-6-methoxybenzofuran-3(2H)-one], the IC50 in assay [1] worked out at 150 nM; in assay [2] (Homo sapiens, PANC-1, 72 h), 8400 nM; in assay [3] (Homo sapiens, MIA PaCa-2) it was 2400 nM; in assay [4] (Homo sapiens, L3.6pl, 72 h) it was 3500 nM.
On to `COc1ccc2c(c1CN1CC[C@H](N)C1)O/C(=C\c1n[nH]c3ncccc13)C2=O` [Compound 14, (S,Z)-2-[(1H-pyrazolo[3,4-b]pyridin-3-yl)methylene]-7-[(3-aminopyrrolidin-1-yl)methyl]-6-methoxybenzofuran-3(2H)-one], for which, in assay [1], the half-inhibitory concentration (IC50) stood at 1 nM.
In turn, `COc1ccc2c(c1CN1CC[C@@H](N)C1)O/C(=C\c1n[nH]c3ncccc13)C2=O` [Compound 15, (R,Z)-2-[(1H-pyrazolo[3,4-b]pyridin-3-yl)methylene]-7-[(3-aminopyrrolidin-1-yl)methyl]-6-methoxybenzofuran-3(2H)-one] displayed an IC50 in [1] of 1.6 nM.
The same measure, in the same setting: to `COc1ccc2c(c1CC1CCNCC1)O/C(=C\c1n[nH]c3nc(C)ccc13)C2=O` [Compound 16, (Z)-6-methoxy-2-[(6-methyl-1H-pyrazolo[3,4-b]pyridin-3-yl)methylene]-7-(piperidin-4-ylmethyl)benzofuran-3(2H)-one] belongs 0.7 nM.
For the compound `O=C1/C(=C/c2n[nH]c3ncccc23)Oc2c1ccc(OC(F)F)c2CC1CCNCC1` [Compound 17, (Z)-2-[(1H-pyrazolo[3,4-b]pyridin-3-yl)methylene]-6-(difluoromethoxy)-7-(piperidin-4-ylmethyl)benzofuran-3(2H)-one], the IC50 was found to be 9700 nM in assay [5]; 9300 nM in assay [6]; 3200 nM in assay [7]; 18000 nM in assay [8]; 6200 nM in [9]; 2.2 nM in [1].
With `COc1ccc2c(c1CC1CCNCC1F)O/C(=C\c1n[nH]c3ncccc13)C2=O` (centres unmarked) [Compound 18, (Z)-2-[(1H-pyrazolo[3,4-b]pyridin-3-yl)methylene]-7-[(3-fluoropiperidin-4-yl)methyl]-6-methoxybenzofuran-3(2H)-one], the IC50 in assay [1] came to 0.35 nM; in [2] (Homo sapiens, PANC-1, 72 h), 420 nM; in [3] (Homo sapiens, MIA PaCa-2), 220 nM; in assay [4] (Homo sapiens, L3.6pl, 72 h) it was 250 nM.
Take `COc1ccc2c(c1CC1CCNCC1F)O/C(=C\c1n[nH]c3ncccc13)C2=O` (centres unmarked) [Compound 19, (Z)-2-[(1H-pyrazolo[3,4-b]pyridin-3-yl)methylene]-7-[(3-fluoropiperidin-4-yl)methyl]-6-methoxybenzofuran-3(2H)-one]: the IC50 in assay [1] is 0.7 nM; in assay [2], 330 nM; in [3] it was 220 nM; in assay [4], 300 nM.
Take `CCOc1ccc2c(c1C(C)N1CCNCC1)O/C(=C\c1n[nH]c3ncccc13)C2=O` (centres unmarked) [Compound 22, (Z)-2-[(1H-pyrazolo[3,4-b]pyridin-3-yl)methylene]-6-ethoxy-7-[1-(piperazin-1-yl)ethyl]benzofuran-3(2H)-one]: the 50% inhibitory concentration (IC50) in assay [5] came out at 2700 nM; in assay [6] it was 1800 nM; in assay [7], 1300 nM; in assay [8] it was 2500 nM; in assay [9], 2800 nM; in [1] it was 1.3 nM.
Take `CC(c1c(OCC2CC2)ccc2c1O/C(=C\c1n[nH]c3ncccc13)C2=O)N1CCNCC1` (centres unmarked) [Compound 23, (Z)-2-[(1H-pyrazolo[3,4-b]pyridin-3-yl)methylene]-6-(cyclopropylmethoxy)-7-[1-(piperazin-1-yl)ethyl]benzofuran-3(2H)-one]: the concentration for half-maximal inhibition (IC50) in assay [5] came to 8000 nM; in assay [6], 5300 nM; in [7] it was 3800 nM; in assay [8], 4200 nM; in assay [9] it was 9800 nM; in [1] it was 0.62 nM.
For `C=C(CN1CCNCC1)c1c(OC)ccc2c1O/C(=C\c1n[nH]c3ncccc13)C2=O` [Compound 24, (Z)-2-[(1H-pyrazolo[3,4-b]pyridin-3-yl)methylene]-6-methoxy-7-[3-(piperazin-1-yl)prop-1-en-2-yl]benzofuran-3(2H)-one], the 50% inhibitory concentration (IC50) in assay [1] stood at 12 nM.
On the same count and under the same terms, next, `CN[C@H]1CCN(Cc2c(OC)ccc3c2O/C(=C\c2n[nH]c4ncccc24)C3=O)C1` [Compound 26, (S,Z)-2-[(1H-pyrazolo[3,4-b]pyridin-3-yl)methylene]-6-methoxy-7-{[3-(methylamino)pyrrolidin-1-yl]methyl}benzofuran-3(2H)-one]: 1.1 nM; `COc1ccc2c(c1C(C)CN1CCNCC1)O/C(=C\c1n[nH]c3ncccc13)C2=O` (centres unmarked) [Compound 27, (Z)-2-[(1H-pyrazolo[3,4-b]pyridin-3-yl)methylene]-6-methoxy-7-[1-(piperazin-1-yl)propan-2-yl]benzofuran-3(2H)-one]: 6.4 nM; `O=C1/C(=C/c2n[nH]c3ncccc23)Oc2c1ccc(Cl)c2CC1CCNCC1` [Compound 28, (Z)-2-[(1H-pyrazolo[3,4-b]pyridin-3-yl)methylene]-6-chloro-7-(piperidin-4-ylmethyl)benzofuran-3(2H)-one]: 1.3 nM.
Still for that read-out and setting: to `COc1ccc2c(c1CN1CCC[C@@H]1CN)O/C(=C\c1n[nH]c3ncccc13)C2=O` [Compound 31, (R,Z)-2-[(1H-pyrazolo[3,4-b]pyridin-3-yl)methylene]-7-{[2-(aminomethyl)pyrrolidin-1-yl]methyl}-6-methoxybenzofuran-3(2H)-one] belongs 0.96 nM.

The values are drawn from patent US20170145005A1, “KINASE INHIBITOR” (THE UNIVERSITY OF TOKYO, priority 2014, published 2017).
